From patent publication US10221173B2, “Chemical compounds” (AstraZeneca AB, priority 2017, dated 2019)
pIC50: −log10 of the molar value. In brackets after ≈: the same amount, converted by molar mass. Values belong to the compound of their own block, whether it stands above or below them.

Assays:
[1] = biological target: recombinant human Estrogen Receptor alpha ligand binding domain (ER alpha-LBD (GST)) (Homo sapiens (Human), UniProt P03372); test: ERα binding assay (LanthaScreen TR-FRET competition)
[2] = biological target: T1, Estrogen Receptor (ERα) in MCF-7 cells (Homo sapiens (Human), UniProt P03372); test: MCF-7 ER down-regulation assay (immuno-fluorescence); format: cell-based
[3] = biological target: estrogen receptor (ERα) in CAMA-1 cells (Homo sapiens (Human), UniProt P03372); test: Western blotting assay, ER down-regulation in CAMA-1; format: cell-based; details: CAMA-1, 100 nM compound, 48 h, vs 100 nM fulvestrant
[4] = biological target: T1, Estrogen Receptor (ERα) in MCF-7 cells; test: Western blotting assay, ER down-regulation in MCF-7; format: cell-based; details: MCF-7, 100 nM compound, 48 h, vs 100 nM fulvestrant
[5] = Thermodynamic solubility (shake-flask); format: physicochemical; details: aqueous phosphate buffer, 25 °C, pH 7.4, aqueous buffer, thermodynamic from solid, phosphate buffer pH 7.4, 24 hours
[6] = Log D (shake flask, 1-octanol/aqueous buffer); format: physicochemical; details: 1-octanol/aqueous buffer, pH 7.4, pH 7.4
[7] = Human plasma protein binding (equilibrium dialysis); format: in vitro ADME
hERG potassium channel = hERG potassium channel (Homo sapiens (Human), UniProt Q12809)
hERG potassium channel, sequence (Q12809 whole entry): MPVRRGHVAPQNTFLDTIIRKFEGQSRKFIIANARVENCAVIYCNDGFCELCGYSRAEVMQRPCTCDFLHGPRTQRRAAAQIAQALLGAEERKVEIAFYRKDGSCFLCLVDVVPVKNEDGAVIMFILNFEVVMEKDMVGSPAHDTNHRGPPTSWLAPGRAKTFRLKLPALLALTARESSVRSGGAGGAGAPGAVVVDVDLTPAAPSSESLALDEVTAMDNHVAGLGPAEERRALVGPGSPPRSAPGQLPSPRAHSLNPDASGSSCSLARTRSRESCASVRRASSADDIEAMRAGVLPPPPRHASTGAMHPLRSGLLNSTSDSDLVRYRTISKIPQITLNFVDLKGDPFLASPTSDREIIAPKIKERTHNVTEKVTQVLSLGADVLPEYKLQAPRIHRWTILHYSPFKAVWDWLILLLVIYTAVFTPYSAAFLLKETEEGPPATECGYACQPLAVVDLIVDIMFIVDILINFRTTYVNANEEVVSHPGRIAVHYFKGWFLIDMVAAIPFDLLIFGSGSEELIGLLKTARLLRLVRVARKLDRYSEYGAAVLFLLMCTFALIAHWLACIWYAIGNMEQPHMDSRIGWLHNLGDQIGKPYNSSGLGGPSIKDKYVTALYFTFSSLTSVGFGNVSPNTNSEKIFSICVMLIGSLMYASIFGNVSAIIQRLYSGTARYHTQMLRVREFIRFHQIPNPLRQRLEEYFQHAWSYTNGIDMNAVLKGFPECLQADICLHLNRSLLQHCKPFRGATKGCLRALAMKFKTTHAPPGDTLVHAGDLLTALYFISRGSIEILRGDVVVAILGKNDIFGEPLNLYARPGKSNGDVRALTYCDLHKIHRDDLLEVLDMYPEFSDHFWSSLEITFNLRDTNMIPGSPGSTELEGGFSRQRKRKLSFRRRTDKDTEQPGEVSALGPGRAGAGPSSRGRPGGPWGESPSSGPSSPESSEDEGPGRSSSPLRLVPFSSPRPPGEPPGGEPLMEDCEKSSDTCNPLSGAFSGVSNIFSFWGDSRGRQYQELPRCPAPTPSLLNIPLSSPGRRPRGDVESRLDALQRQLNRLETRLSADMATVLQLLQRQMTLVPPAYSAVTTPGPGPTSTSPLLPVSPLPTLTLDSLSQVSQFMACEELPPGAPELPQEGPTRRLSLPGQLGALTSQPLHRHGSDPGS

estrogen receptor (ERα) in CAMA-1 cells, sequence (P03372 whole entry): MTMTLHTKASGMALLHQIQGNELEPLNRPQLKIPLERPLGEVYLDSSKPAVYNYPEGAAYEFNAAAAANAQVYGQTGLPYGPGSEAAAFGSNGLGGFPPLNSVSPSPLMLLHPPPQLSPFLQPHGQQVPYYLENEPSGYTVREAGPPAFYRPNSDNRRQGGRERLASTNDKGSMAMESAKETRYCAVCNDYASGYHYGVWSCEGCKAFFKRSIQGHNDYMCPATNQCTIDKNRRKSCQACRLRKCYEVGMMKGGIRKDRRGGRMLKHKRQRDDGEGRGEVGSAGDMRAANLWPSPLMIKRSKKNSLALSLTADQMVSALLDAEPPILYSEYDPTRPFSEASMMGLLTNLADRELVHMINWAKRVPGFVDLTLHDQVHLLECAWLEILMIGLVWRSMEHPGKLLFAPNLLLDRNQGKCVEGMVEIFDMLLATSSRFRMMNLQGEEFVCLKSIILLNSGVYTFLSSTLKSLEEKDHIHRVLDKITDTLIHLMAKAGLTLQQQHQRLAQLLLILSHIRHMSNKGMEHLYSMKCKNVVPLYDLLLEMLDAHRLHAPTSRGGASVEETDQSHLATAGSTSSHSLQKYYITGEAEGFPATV
T1 sequence (P03372 whole entry): as above
recombinant human Estrogen Receptor alpha ligand binding domain (ER alpha-LBD (GST)), sequence (P03372 307-554): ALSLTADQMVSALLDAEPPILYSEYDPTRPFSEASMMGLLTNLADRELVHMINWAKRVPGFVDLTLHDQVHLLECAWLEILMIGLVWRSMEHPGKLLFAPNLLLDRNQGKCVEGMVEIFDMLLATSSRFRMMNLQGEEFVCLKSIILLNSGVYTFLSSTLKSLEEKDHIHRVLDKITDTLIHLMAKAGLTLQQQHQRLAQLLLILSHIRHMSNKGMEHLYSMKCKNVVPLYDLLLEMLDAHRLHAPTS

Compound: COc1ccc(OCCNCCCF)c(F)c1[C@@H]1c2[nH]c3ccccc3c2C[C@@H](C)N1CC(F)(F)F [Example 11, 3-fluoro-N-(2-(2-fluoro-4-methoxy-3-((1R,3R)-3-methyl-2-(2,2,2-trifluoroethyl)-2,3,4,9-tetrahydro-1H-pyrido[3,4-b]indol-1-yl)phenoxy)ethyl)propan-1-amine]
pIC50 [1]: 8.92
pIC50 [2]: 9.85
CAMA1 Western % ER deg vs Fv [3]: 92%
MCF7 Western % ER deg vs Fv [4]: 94%

Compound: Cc1c(OCCNCCC(F)F)ccc(F)c1[C@@H]1c2[nH]c3ccccc3c2C[C@@H](C)N1C[C@H](C)C(=O)O [Example 124, (S)-3-((1R,3R)-1-(3-(2-((3,3-Difluoropropyl)amino)ethoxy)-6-fluoro-2-methylphenyl)-3-methyl-1,3,4,9-tetrahydro-2H-pyrido[3,4-b]indol-2-yl)-2-methylpropanoic acid]
pIC50 [1]: 8.41
pIC50 [2]: 9.17
CAMA1 Western % ER deg vs Fv [3]: 82%
MCF7 Western % ER deg vs Fv [4]: 93%

CAMA1 Western % ER deg vs Fv [3]: 101%
MCF7 Western % ER deg vs Fv [4]: 94%
Compound: C[C@@H]1Cc2c([nH]c3ccccc23)[C@@H](c2cc(OCCNCCCF)ccc2F)N1CC(F)(F)F [Example 10, 3-fluoro-N-(2-(4-fluoro-3-((1R,3R)-3-methyl-2-(2,2,2-trifluoroethyl)-2,3,4,9-tetrahydro-1H-pyrido[3,4-b]indol-1-yl)phenoxy)ethyl)propan-1-amine]

Compound: Cc1c(OCCNCCCF)ccc(F)c1[C@@H]1c2[nH]c3ccc(F)cc3c2C[C@@H](C)N1C[C@@H](C)C(=O)O [Example 121, (R)-3-((1R,3R)-6-fluoro-1-(6-fluoro-3-(2-((3-fluoropropyl)amino)ethoxy)-2-methylphenyl)-3-methyl-1,3,4,9-tetrahydro-2H-pyrido[3,4-b]indol-2-yl)-2-methylpropanoic acid]
pIC50 [1]: 8.55
pIC50 [2]: 9.28
CAMA1 Western % ER deg vs Fv [3]: 107%
MCF7 Western % ER deg vs Fv [4]: 85%

MCF7 Western % ER deg vs Fv [4]: 94%
Compound: Cc1c(OCCN(C)CCCF)ncc(F)c1[C@@H]1c2[nH]c3ccccc3c2C[C@@H](C)N1C[C@H](C)C(=O)O [Example 145, (S)-3-((1R,3R)-1-(5-fluoro-2-(2-((3-fluoropropyl)(methyl)amino)ethoxy)-3-methylpyridin-4-yl)-3-methyl-1,3,4,9-tetrahydro-2H-pyrido[3,4-b]indol-2-yl)-2-methylpropanoic acid]

CAMA1 Western % ER deg vs Fv [3]: 95%
MCF7 Western % ER deg vs Fv [4]: 95%
Compound: C[C@@H]1Cc2c([nH]c3ccccc23)[C@@H](c2c(F)ccc(OCCNCCCF)c2F)N1CC(F)(F)CO [Example 14, 3-((1R,3R)-1-(2,6-difluoro-3-(2-((3-fluoropropyl)amino)ethoxy)phenyl)-3-methyl-1,3,4,9-tetrahydro-2H-pyrido[3,4-b]indol-2-yl)-2,2-difluoropropan-1-ol]

Compound: C[C@@H]1Cc2c([nH]c3ccccc23)[C@@H](c2c(F)ccc(OCCNCCCF)c2F)N1CC(F)(F)F [Example 9, N-(2-(2,4-difluoro-3-((1R,3R)-3-methyl-2-(2,2,2-trifluoroethyl)-2,3,4,9-tetrahydro-1H-pyrido[3,4-b]indol-1-yl)phenoxy)ethyl)-3-fluoropropan-1-amine]
pIC50 [1]: 8.92
pIC50 [2]: 10.06
CAMA1 Western % ER deg vs Fv [3]: 101%
MCF7 Western % ER deg vs Fv [4]: 97%

CAMA1 Western % ER deg vs Fv [3]: 71%
MCF7 Western % ER deg vs Fv [4]: 87%
Compound: Cc1c(OCCN(C)CCCF)ccc(F)c1[C@@H]1c2[nH]c3ccccc3c2C[C@@H](C)N1C[C@H](C)C(=O)O [Example 143, (S)-3-((1R,3R)-1-(6-fluoro-3-(2-((3-fluoropropyl)(methyl)amino)ethoxy)-2-methylphenyl)-3-methyl-1,3,4,9-tetrahydro-2H-pyrido[3,4-b]indol-2-yl)-2-methylpropanoic acid]

Compound: C[C@@H]1Cc2c([nH]c3ccccc23)[C@@H](c2c(F)ccc(OCCNCCCF)c2F)N1CC1(F)CC1 [Example 76, N-(2-(2,4-difluoro-3-((1R,3R)-2-((1-fluorocyclopropyl)methyl)-3-methyl-2,3,4,9-tetrahydro-1H-pyrido[3,4-b]indol-1-yl)phenoxy)ethyl)-3-fluoropropan-1-amine]
pIC50 [1]: 9.00
pIC50 [2]: 9.68
CAMA1 Western % ER deg vs Fv [3]: 85%
MCF7 Western % ER deg vs Fv [4]: 92%

Compound: Cc1c(OCCNCCCF)ccc(F)c1[C@@H]1c2[nH]c3ccccc3c2C[C@@H](C(F)(F)F)N1C[C@H](C)C(=O)O [Example 140, (S)-3-((1R,3S)-1-(6-fluoro-3-(2-((3-fluoropropyl)amino)ethoxy)-2-methylphenyl)-3-(trifluoromethyl)-1,3,4,9-tetrahydro-2H-pyrido[3,4-b]indol-2-yl)-2-methylpropanoic acid]
pIC50 [1]: 8.85
pIC50 [2]: 9.00
MCF7 Western % ER deg vs Fv [4]: 84%

Compound: Cc1c(OCCNCCC(F)F)ccc(F)c1[C@@H]1c2[nH]c3ccccc3c2C[C@@H](C)N1C[C@@H](C)C(=O)O [Example 123, (R)-3-((1R,3R)-1-(3-(2-((3,3-difluoropropyl)amino)ethoxy)-6-fluoro-2-methylphenyl)-3-methyl-1,3,4,9-tetrahydro-2H-pyrido[3,4-b]indol-2-yl)-2-methylpropanoic acid]
pIC50 [1]: 7.96
pIC50 [2]: 9.02
CAMA1 Western % ER deg vs Fv [3]: 90%
MCF7 Western % ER deg vs Fv [4]: 91%

Compound: Cc1c(OCCNCCCF)ccc(F)c1[C@@H]1c2[nH]c3ccccc3c2C[C@@H](C(F)F)N1C[C@H](C)C(=O)O [Example 137, (S)-3-((1R,3S)-3-(difluoromethyl)-1-(6-fluoro-3-(2-((3-fluoropropyl)amino)ethoxy)-2-methylphenyl)-1,3,4,9-tetrahydro-2H-pyrido[3,4-b]indol-2-yl)-2-methylpropanoic acid]
pIC50 [1]: 8.77
pIC50 [2]: 9.28
CAMA1 Western % ER deg vs Fv [3]: 95%
MCF7 Western % ER deg vs Fv [4]: 90%

CAMA1 Western % ER deg vs Fv [3]: 94%
MCF7 Western % ER deg vs Fv [4]: 89%
Compound: Cc1c(OCCNCCCF)ccc(F)c1[C@@H]1c2[nH]c3ccccc3c2C[C@@H](C)N1C[C@H](C)C(=O)O [Example 55, (S)-3-((1R,3R)-1-(6-fluoro-3-(2-((3-fluoropropyl)amino)ethoxy)-2-methylphenyl)-3-methyl-1,3,4,9-tetrahydro-2H-pyrido[3,4-b]indol-2-yl)-2-methylpropanoic acid]

CAMA1 Western % ER deg vs Fv [3]: 91%
solubility at 24 h [5]: 11 µM (≈ 5.25 µg/mL)
Compound: Cc1c(OCCNCCCF)cccc1[C@@H]1c2[nH]c3ccccc3c2C[C@@H](C)N1CC(F)(F)F [Example 20, 3-fluoro-N-(2-(2-methyl-3-((1R,3R)-3-methyl-2-(2,2,2-trifluoroethyl)-2,3,4,9-tetrahydro-1H-pyrido[3,4-b]indol-1-yl)phenoxy)ethyl)propan-1-amine]

Compound: Cc1c(OCCNCCCF)ccc(F)c1[C@@H]1c2[nH]c3ccc(F)cc3c2C[C@@H](C)N1C[C@H](C)C(=O)O [Example 57, (S)-3-((1R,3R)-6-fluoro-1-(6-fluoro-3-(2-((3-fluoropropyl)amino)ethoxy)-2-methylphenyl)-3-methyl-1,3,4,9-tetrahydro-2H-pyrido[3,4-b]indol-2-yl)-2-methylpropanoic acid]
pIC50 [1]: 8.59
pIC50 [2]: 9.47
MCF7 Western % ER deg vs Fv [4]: 93%

Compound: C[C@@H](CN1[C@H](c2c(F)cnc(OCCNCCCF)c2Cl)c2[nH]c3ccccc3c2C[C@H]1C(F)(F)F)C(=O)O [Example 142, (S)-3-((1R,3S)-1-(3-chloro-5-fluoro-2-(2-((3-fluoropropyl)amino)ethoxy)pyridin-4-yl)-3-(trifluoromethyl)-1,3,4,9-tetrahydro-2H-pyrido[3,4-b]indol-2-yl)-2-methylpropanoic acid]
pIC50 [1]: 8.82
pIC50 [2]: 9.02
CAMA1 Western % ER deg vs Fv [3]: 80%
MCF7 Western % ER deg vs Fv [4]: 85%

Compound: COc1ccc(NCCNCCCF)cc1[C@@H]1c2[nH]c3ccccc3c2C[C@@H](C)N1CC(F)(F)F [Example 40, N1-(3-fluoropropyl)-N2-(4-methoxy-3-((1R,3R)-3-methyl-2-(2,2,2-trifluoroethyl)-2,3,4,9-tetrahydro-1H-pyrido[3,4-b]indol-1-yl)phenyl)ethane-1,2-diamine]
pIC50 [1]: 8.10
pIC50 [2]: 9.28
CAMA1 Western % ER deg vs Fv [3]: 70%
logD [6]: 3
solubility at 24 h [5]: 366 µM (≈ 180 µg/mL)
Human plasma protein binding (% free) [7]: 0.89 % free
pIC50 (hERG potassium channel): 5.39

MCF7 Western % ER deg vs Fv [4]: 93%
Compound: Cc1c(OCCN(C)CCCF)ncc(F)c1[C@@H]1c2[nH]c3ccccc3c2C[C@@H](C)N1C[C@@H](C)C(=O)O [Example 152, (R)-3-((1R,3R)-1-(5-fluoro-2-(2-((3-fluoropropyl)(methyl)amino)ethoxy)-3-methylpyridin-4-yl)-3-methyl-1,3,4,9-tetrahydro-2H-pyrido[3,4-b]indol-2-yl)-2-methylpropanoic acid]

Compound: C[C@@H](CN1[C@H](c2c(F)ccc(OCCNCCCF)c2Cl)c2[nH]c3ccccc3c2C[C@H]1C(F)(F)F)C(=O)O [Example 141]
pIC50 [1]: 8.55
pIC50 [2]: 9.01
MCF7 Western % ER deg vs Fv [4]: 79%

Compound: C[C@@H]1Cc2c([nH]c3ccccc23)[C@@H](c2c(F)cnc(OCCNCCCF)c2F)N1CC(F)(F)CO [Example 64, 3-((1R,3R)-1-(3,5-difluoro-2-(2-((3-fluoropropyl)amino)ethoxy)pyridin-4-yl)-3-methyl-1,3,4,9-tetrahydro-2H-pyrido[3,4-b]indol-2-yl)-2,2-difluoropropan-1-ol]
pIC50 [1]: 9.02
pIC50 [2]: 10.15
CAMA1 Western % ER deg vs Fv [3]: 98%
MCF7 Western % ER deg vs Fv [4]: 96%
